Data reported in PubChem BioAssay (NCI).
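Where inhibition never reached the appropriate level, the endpoint shown equals the highest concentration tested. Otherwise, values were interpolated linearly from a five-concentration, 48-hour dose response in 96-well plates. GI50 = concentration required for 50% inhibition of growth. TGI denotes the concentration required for complete inhibition of growth.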

Tests used:
Test in all cases: DTP human tumour cell line panel, 48 h
786-0 renal = tested on: 786-0 renal
A498 renal = tested on: A498 renal
A549 NSCLC = tested on: A549 NSCLC
ACHN renal = tested on: ACHN renal
BT-549 breast = tested on: BT-549 breast
CAKI-1 renal = tested on: CAKI-1 renal
CCRF-CEM leukemia = tested on: CCRF-CEM leukemia
COLO 205 colon = tested on: COLO 205 colon
DU-145 prostate = tested on: DU-145 prostate
EKVX NSCLC = tested on: EKVX NSCLC
HCT-116 colon = tested on: HCT-116 colon
HCT-15 colon = tested on: HCT-15 colon
HL-60(TB) leukemia = tested on: HL-60(TB) leukemia
HOP-62 NSCLC = tested on: HOP-62 NSCLC
HOP-92 NSCLC = tested on: HOP-92 NSCLC
HS 578T breast = tested on: HS 578T breast
HT29 colon = tested on: HT29 colon
IGROV1 ovarian = tested on: IGROV1 ovarian
K-562 leukemia = tested on: K-562 leukemia
KM12 colon = tested on: KM12 colon
LOX IMVI melanoma = tested on: LOX IMVI melanoma
M14 melanoma = tested on: M14 melanoma
MALME-3M melanoma = tested on: MALME-3M melanoma
MCF7 breast = tested on: MCF7 breast
MDA-MB-231 breast = tested on: MDA-MB-231 breast
MDA-MB-435 = tested on: MDA-MB-435
MOLT-4 leukemia = tested on: MOLT-4 leukemia
NCI-H226 lung = tested on: NCI-H226 lung
NCI-H23 lung = tested on: NCI-H23 lung
NCI-H460 lung = tested on: NCI-H460 lung
NCI-H522 lung = tested on: NCI-H522 lung
NCI/ADR-RES ovarian = tested on: NCI/ADR-RES ovarian
OVCAR-4 ovarian = tested on: OVCAR-4 ovarian
OVCAR-5 ovarian = tested on: OVCAR-5 ovarian
OVCAR-8 ovarian = tested on: OVCAR-8 ovarian
PC-3 prostate = tested on: PC-3 prostate
RPMI-8226 leukemia = tested on: RPMI-8226 leukemia
RXF 393 renal = tested on: RXF 393 renal
SF-268 CNS = tested on: SF-268 CNS
SF-295 CNS = tested on: SF-295 CNS
SF-539 CNS = tested on: SF-539 CNS
SK-MEL-2 melanoma = tested on: SK-MEL-2 melanoma
SK-MEL-28 melanoma = tested on: SK-MEL-28 melanoma
SK-MEL-5 melanoma = tested on: SK-MEL-5 melanoma
SK-OV-3 ovarian = tested on: SK-OV-3 ovarian
SN12C renal = tested on: SN12C renal
SNB-19 CNS = tested on: SNB-19 CNS
SNB-75 CNS = tested on: SNB-75 CNS
SR leukemia = tested on: SR leukemia
SW-620 colon = tested on: SW-620 colon
T-47D breast = tested on: T-47D breast
U251 CNS = tested on: U251 CNS
UACC-257 melanoma = tested on: UACC-257 melanoma
UACC-62 melanoma = tested on: UACC-62 melanoma
UO-31 renal = tested on: UO-31 renal
HCC-2998 colon = tested on: HCC-2998 colon
OVCAR-3 ovarian = tested on: OVCAR-3 ovarian
TK-10 renal = tested on: TK-10 renal

## O=C1c2cccnc2-c2nc(-c3cccnc3)cc3c2c1nc1ccccc13
786-0 renal
  GI50: 2.74 µM
  TGI: 8.85 µM
A498 renal
  GI50: 17.7 µM
  TGI: 46.8 µM
A549 NSCLC
  GI50: 3.97 µM
  TGI: 15.6 µM
ACHN renal
  GI50: 1.55 µM
  TGI: 2.88 µM
BT-549 breast
  GI50: 4.53 µM
  TGI: 9.5 µM
CAKI-1 renal
  GI50: 6.96 µM
  TGI: 22.8 µM
CCRF-CEM leukemia
  GI50: 5.23 µM
  TGI: > 100 µM
COLO 205 colon
  GI50: 3.33 µM
  TGI: 10.9 µM
DU-145 prostate
  GI50: 3 µM
  TGI: 8.31 µM
EKVX NSCLC
  GI50: 10.6 µM
  TGI: 32.7 µM
HCT-116 colon
  GI50: 2.8 µM
  TGI: > 32.7 µM
HCT-15 colon
  GI50: 1.63 µM
  TGI: 4.58 µM
HL-60(TB) leukemia
  GI50: 2.11 µM
  TGI: > 100 µM
HOP-62 NSCLC
  GI50: 1.73 µM
  TGI: 3.22 µM
HOP-92 NSCLC
  GI50: 6.44 µM
  TGI: 80.6 µM
HS 578T breast
  GI50: 2.94 µM
  TGI: > 20.9 µM
HT29 colon
  GI50: 2.52 µM
IGROV1 ovarian
  GI50: 3.12 µM
  TGI: 28.4 µM
K-562 leukemia
  GI50: 1.67 µM
  TGI: > 100 µM
KM12 colon
  GI50: 4.16 µM
  TGI: > 44.5 µM
LOX IMVI melanoma
  GI50: 2.8 µM
  TGI: > 25.1 µM
M14 melanoma
  GI50: 1.93 µM
  TGI: 3.51 µM
MALME-3M melanoma
  GI50: 17.6 µM
  TGI: 32.4 µM
MCF7 breast
  GI50: 1.64 µM
  TGI: 3.32 µM
MDA-MB-231 breast
  GI50: 4.43 µM
  TGI: > 72 µM
MDA-MB-435
  GI50: 5.58 µM
  TGI: 32 µM
MOLT-4 leukemia
  GI50: 3.21 µM
  TGI: > 41.3 µM
NCI-H226 lung
  GI50: 2.02 µM
  TGI: 5.53 µM
NCI-H23 lung
  GI50: 3.7 µM
  TGI: 20.7 µM
NCI-H460 lung
  GI50: 2.16 µM
NCI-H522 lung
  GI50: 1.74 µM
  TGI: 4.35 µM
NCI/ADR-RES ovarian
  GI50: 3.12 µM
  TGI: > 23.9 µM
OVCAR-4 ovarian
  GI50: 5.07 µM
  TGI: 19.8 µM
OVCAR-5 ovarian
  GI50: 12.2 µM
  TGI: 30.1 µM
OVCAR-8 ovarian
  GI50: 1.31 µM
  TGI: 3.96 µM
PC-3 prostate
  GI50: 4.4 µM
  TGI: 26.7 µM
RPMI-8226 leukemia
  GI50: 2.59 µM
  TGI: > 100 µM
RXF 393 renal
  GI50: 3.95 µM
  TGI: 11.3 µM
SF-268 CNS
  GI50: 3.73 µM
  TGI: > 26.5 µM
SF-295 CNS
  GI50: 1.92 µM
  TGI: 3.71 µM
SF-539 CNS
  GI50: 1.72 µM
  TGI: 3.6 µM
SK-MEL-2 melanoma
  GI50: 18 µM
  TGI: 33.8 µM
SK-MEL-28 melanoma
  GI50: 20.5 µM
  TGI: 59 µM
SK-MEL-5 melanoma
  GI50: 1.55 µM
  TGI: 3.46 µM
SK-OV-3 ovarian
  GI50: 15.3 µM
  TGI: 29.8 µM
SN12C renal
  GI50: 2.18 µM
  TGI: 5.02 µM
SNB-19 CNS
  GI50: 5.59 µM
  TGI: 21 µM
SNB-75 CNS
  GI50: 2.34 µM
  TGI: 6.91 µM
SR leukemia
  TGI: > 100 µM
SW-620 colon
  GI50: 2.28 µM
  TGI: 5.63 µM
T-47D breast
  GI50: 10.4 µM
  TGI: > 65.2 µM
U251 CNS
  GI50: 3.61 µM
  TGI: > 100 µM
UACC-257 melanoma
  GI50: 10.1 µM
  TGI: 15.1 µM
UACC-62 melanoma
  GI50: 13.3 µM
  TGI: 28.3 µM
UO-31 renal
  GI50: 15.2 µM
  TGI: 37.3 µM

## CCOc1cc(/C=C/C(=O)C(C(=O)/C=C/c2ccc(OC(=O)CNc3nc4ccccc4[nH]3)c(OCC)c2)C(=O)CNc2nc3ccccc3[nH]2)ccc1OC(=O)CNc1nc2ccccc2[nH]1
A498 renal
  GI50: 1.68 µM
  TGI: 3.87 µM
A549 NSCLC
  GI50: 3.55 µM
  TGI: 27 µM
ACHN renal
  GI50: 2.31 µM
  TGI: 6.68 µM
BT-549 breast
  GI50: 1.45 µM
  TGI: 3.13 µM
CCRF-CEM leukemia
  GI50: 1.14 µM
  TGI: 3.16 µM
COLO 205 colon
  GI50: 2.08 µM
  TGI: 4.61 µM
DU-145 prostate
  GI50: 1.7 µM
  TGI: 3.72 µM
EKVX NSCLC
  GI50: 1.99 µM
  TGI: 5.37 µM
HCC-2998 colon
  GI50: 1.69 µM
  TGI: 3.22 µM
HCT-116 colon
  GI50: 1.63 µM
  TGI: 4.84 µM
HCT-15 colon
  GI50: 2.53 µM
  TGI: 7.87 µM
HL-60(TB) leukemia
  GI50: 1.62 µM
  TGI: 3.61 µM
HOP-62 NSCLC
  GI50: 4.23 µM
  TGI: > 100 µM
HOP-92 NSCLC
  GI50: 1.4 µM
  TGI: 4.26 µM
HS 578T breast
  GI50: 1.83 µM
  TGI: 5.18 µM
HT29 colon
  GI50: 1.29 µM
  TGI: 2.56 µM
IGROV1 ovarian
  GI50: 2.93 µM
  TGI: > 100 µM
K-562 leukemia
  GI50: 1.44 µM
  TGI: 2.75 µM
KM12 colon
  GI50: 1.62 µM
  TGI: 3.26 µM
LOX IMVI melanoma
  GI50: 1.66 µM
  TGI: 3.02 µM
M14 melanoma
  GI50: 2.14 µM
  TGI: 6.76 µM
MALME-3M melanoma
  GI50: 1.75 µM
  TGI: 5.93 µM
MCF7 breast
  GI50: 1.06 µM
  TGI: 3.56 µM
MDA-MB-231 breast
  GI50: 2.39 µM
  TGI: 7.29 µM
MDA-MB-435
  GI50: 2.07 µM
  TGI: 6.92 µM
MOLT-4 leukemia
  GI50: 1.47 µM
  TGI: 3.04 µM
NCI-H226 lung
  GI50: 2.07 µM
  TGI: 5.67 µM
NCI-H23 lung
  GI50: 2.5 µM
  TGI: 9.71 µM
NCI-H460 lung
  GI50: 1.92 µM
  TGI: 4.44 µM
NCI-H522 lung
  GI50: 3.29 µM
  TGI: 12.5 µM
NCI/ADR-RES ovarian
  GI50: 3.39 µM
  TGI: 74 µM
OVCAR-3 ovarian
  GI50: 2.81 µM
  TGI: 12.3 µM
OVCAR-4 ovarian
  GI50: 3.39 µM
  TGI: 22.7 µM
OVCAR-5 ovarian
  GI50: 2.09 µM
  TGI: 5.22 µM
PC-3 prostate
  GI50: 2.12 µM
  TGI: 6.23 µM
RPMI-8226 leukemia
  GI50: 0.754 µM
  TGI: 2.51 µM
RXF 393 renal
  GI50: 4.08 µM
  TGI: > 100 µM
SF-268 CNS
  GI50: 2 µM
  TGI: 6.79 µM
SF-295 CNS
  GI50: 7.86 µM
  TGI: 22.7 µM
SF-539 CNS
  GI50: 1.61 µM
  TGI: 3.1 µM
SK-MEL-2 melanoma
  GI50: 3.26 µM
  TGI: 28.8 µM
SK-MEL-28 melanoma
  GI50: 1.77 µM
  TGI: 3.56 µM
SK-MEL-5 melanoma
  GI50: 1.6 µM
  TGI: 3.02 µM
SK-OV-3 ovarian
  GI50: 3.17 µM
  TGI: 11.9 µM
SN12C renal
  GI50: 2.21 µM
  TGI: 5.61 µM
SNB-19 CNS
  GI50: 2.96 µM
  TGI: 11.7 µM
SNB-75 CNS
  GI50: 3.73 µM
  TGI: 27.9 µM
SR leukemia
  GI50: 0.788 µM
  TGI: 2.53 µM
SW-620 colon
  GI50: 1.6 µM
  TGI: 2.95 µM
T-47D breast
  GI50: 2.86 µM
  TGI: 14.9 µM
TK-10 renal
  GI50: 3.24 µM
  TGI: 14.2 µM
U251 CNS
  GI50: 1.94 µM
  TGI: 4.34 µM
UACC-257 melanoma
  GI50: 2.85 µM
  TGI: 8.73 µM
UACC-62 melanoma
  GI50: 1.9 µM
  TGI: 3.98 µM
UO-31 renal
  GI50: 3.98 µM
  TGI: > 100 µM
